Where a name gives a salt, the structure may show the parent alone.
Key:
[1] = test system: Human Colon Carcinoma Colo-205; assay: Anti-tumor efficacy of 5-FU with Compound X, s.c. Colo-205 xenograft; type: in vivo; conditions: vs Gelucire vehicle day 12
Protocol: (§1) Exponentially grown human colon carcinoma Colo-205 cells [RPMI 1640 with 10% FBS, and pen/strep (Gibco)] were harvested and inoculated subcutaneously (5×10^6 cells/mouse, 200 μl) into the right flank of female Nu/Nu mice (˜20 grams; Charles River Laboratories, MA). 9 days after inoculation, tumor-bearing animals of approximately 150 mm^3 in size were separated into groups of 7 animals each.
(§2) 5-FU (ICN Pharmaceuticals, Inc., Costa Mesa, Calif.) was formulated in 0.9% saline and dosed iv×1 at 25 and 100 mg/kg. One group received 0.9% saline only (200 μl/animal, iv×1) which served as the control for the experiment. The mesylate salt of 3-(4-Bromo-2,6-difluoro-benzyloxy)-5-[3-(4-pyrrolidin-1-yl-butyl)-ureido}-isothiazole-4-carboxylic acid amide was formulated in 5% Gelucire (Gattefosse Inc., France) and dosed po, qd×12 at 25, 50 and 100 mg/kg. One group received 5% Gelucire only, (200 μl/animal, po, qd×12) which served as the vehicle control for the experiment.
(§3) Animal body weight and tumor measurements were obtained at regular intervals. Tumor volume (mm^3) was calculated using the formula length (mm)×width (mm)×width (mm)×0.5.
(§4) Mean tumor volume in Gelucire vehicle group on day 12 was used for the % growth inhibition calculation.

[2] = test system: Human Non Small Cell Lung Carcinoma EBC-1; assay: Anti-tumor efficacy of carboplatin with Compound X, s.c. EBC-1 xenograft; type: in vivo; conditions: vs saline vehicle day 14
Protocol: as §1, with “non-small cell lung” for “colon”, “EBC-1” for “Colo-205”, “(10^7” for “(5×10^6”, “7” for “9”, “175” for “150”, “8” for “7”
Carboplatin (Bristol Oncology Products, Princeton, N.J.) was formulated in 0.9% saline and dosed ip., q3d×4 at 25 and 50 mg/kg. One group received 0.9% saline only (200 μl/animal, ip, q3d×4) which served as the control for the experiment. […] One group received 5% Gelucire only, (200 μl/animal, po, qd×14) which served as the vehicle control for the experiment.
as §3
Mean tumor volume in saline vehicle group on day 14 was used for the % growth inhibition calculation.

[3] = test system: Human Colon Carcinoma Colo-205; assay: Anti-tumor efficacy of CPT-11 with Compound X, s.c. Colo-205 xenograft; type: in vivo, Nu/Nu mice; conditions: vs Gelucire vehicle day 12
Protocol: as §1
as §2, with “CPT-11 (Camptosar®, Pharmacia & Upjohn, Kalamazoo, Mich.) was formulated” for “5-FU (ICN Pharmaceuticals, Inc., Costa Mesa, Calif.) was formulated”, “25 and 75 mg/kg. One” for “25 and 100 mg/kg. One”
as §3, §4

[4] = test system: Human Pancreatic Carcinoma Capan-1; assay: Anti-tumor efficacy of gemcitabine hydrochloride and Compound X, s.c. Capan-1 xenograft; type: in vivo, Nu/Nu mice; conditions: for % Tumor Growth Inhibition: vs Gelucire vehicle day 13
Protocol: (10^7 cells/mouse, 200 μl) into the right flank of female Nu/Nu mice (˜20 grams; […] An overview of each of the groups and the treatment is set forth below in the table. [table] Animal body weight and tumor measurements were obtained at regular intervals. […] Mean tumor volume in Gelucire vehicle group on day 13 was used for % growth inhibition calculation.

[5] = test system: Human Non Small Cell Lung Carcinoma EBC-1; assay: Anti-tumor efficacy of paclitaxel (Taxol) with Compound X, s.c. EBC-1 xenograft; type: in vivo, Nu/Nu mice; conditions: vs Gelucire vehicle day 15
Protocol: as §1, with “non-small cell lung” for “colon”, “EBC-1” for “Colo-205”, “[(RPMI” for “[RPMI”, “s.c. (10^7” for “subcutaneously (5×10^6”, “MA.). 7” for “MA). 9”, “5” for “7”
Compound X (the mesylate salt of 3-(4-Bromo-2,6-difluoro-benzyloxy)-5-[3-(4-pyrrolidin-1-yl-butyl)-ureido}-isothiazole-4-carboxylic acid amide) was formulated in 5% Gelucire (Gattefosse Inc. France) and dosed po., qd×15 at 12.5 and 100 mg/kg. Taxol® (MeadJohnson Oncology Products, Princeton, N.J.) was formulated in 0.9% sterile saline and dosed ip., qd×5 at 20 mg/kg. For control purposes one group received 5% Gelucire only (200 μl/animal, po, qd×15).
as §3
Mean tumor volume in Gelucire vehicle group on day 15 was used for the % growth inhibition calculation.

[6] = test system: Human Breast Carcinoma MDA-MB-231; assay: Anti-tumor efficacy of doxorubicin with Compound X, s.c. MDA-MB-231 xenograft; type: in vivo, Nu/Nu mice; conditions: vs Gelucire vehicle day 24
Protocol: Exponentially grown human breast carcinoma MDA-MB-231 cells [DMEM with 10% FBS, and pen/strep (Gibco)] were harvested and inoculated subcutaneously (3-5×10^6 cells/mouse, 200 μl) into the right flank of female Nu/Nu mice (˜20 grams; Charles River Laboratories, MA). 36 days after inoculation, tumor-bearing animals of approximately 75 mm^3 in size were separated into control (n=19) or experimental groups of animals (n=7 each).
[…] The mesylate salt of 3-(4-Bromo-2,6-difluoro-benzyloxy)-5-[3-(4-pyrrolidin-1-yl-butyl)-ureido}-isothiazole-4-carboxylic acid amide was formulated in 5% Gelucire (Gattefosse Inc., France) and dosed po, qd×24 at 12.5, 25, 50 and 100 mg/kg. One group received 5% Gelucire only, (200 μl/animal, po, qd×24) which served as the vehicle control for the experiment.
as §3
Mean tumor volume in Gelucire vehicle group on day 24 was used for the % growth inhibition calculation.

[7] = Compound X 25 mg/kg, po, qd × 12
[8] = Compound X 50 mg/kg, po, qd × 12
[9] = Compound X 100 mg/kg, po, qd × 12

NC(=O)c1c(OCc2c(F)cc(Br)cc2F)nsc1NC(=O)NCCCCN1CCCC1 [Compound X, 3-(4-Bromo-2,6-difluoro-benzyloxy)-5-[3-(4-pyrrolidin-1-yl-butyl)-ureido}-isothiazole-4-carboxylic acid amide]
% Tumor Growth Inhibition [1, 7]: 21%
% Tumor Growth Inhibition [1, 8]: 47%
% Tumor Growth Inhibition [1, 9]: 64%
% Tumor Growth Inhibition ([2]; Compound X 100 mg/kg, po, qd × 4): 67%
% Tumor Growth Inhibition [3, 7]: 9%
% Tumor Growth Inhibition [3, 8]: 28%
% Tumor Growth Inhibition [3, 9]: 66%
% Tumor Growth Inhibition ([4]; Group 2: Compound X 25 mg/kg, po, qd × 13): 16%
% Tumor Growth Inhibition ([4]; Group 3: Compound X 100 mg/kg, po, qd × 13): 46%
% Tumor Growth Inhibition ([5]; Compound X 12.5 mg/kg, po, qd × 15): 34%
% Tumor Growth Inhibition ([5]; Compound X 100 mg/kg, po, qd × 15): 72%
% tumor growth ([6]; Compound X 12.5 mg/kg, po, qd × 24, growth instead of inhibition): (10% tumor growth)
% Tumor Growth Inhibition ([6]; Compound X 25 mg/kg, po, qd × 24): 24%
% Tumor Growth Inhibition ([6]; Compound X 50 mg/kg, po, qd × 24): 46%
% Tumor Growth Inhibition ([6]; Compound X 100 mg/kg, po, qd × 24): 49%

Nc1ccn([C@@H]2O[C@H](CO)[C@@H](O)C2(F)F)c(=O)n1 [Gemcitabine HCl, Gemcitabine hydrochloride]
% Tumor Growth Inhibition ([4]; Group 4: Gemcitabine HCl 1 mg/kg, ip, q3d × 4): 0%
% Tumor Growth Inhibition ([4]; Group 5: Gemcitabine HCl 5 mg/kg, ip, q3d × 4): 26%
mean tumor regression ([4]; Group 6: Gemcitabine HCl 80 mg/kg, ip, q3d × 4, day 1 volume of group = 100%): 66% regression*
% Tumor Growth Inhibition ([4]; Group 6: Gemcitabine HCl 80 mg/kg, ip, q3d × 4): 83%

CCc1c2c(nc3ccc(OC(=O)N4CCC(N5CCCCC5)CC4)cc13)-c1cc3c(c(=O)n1C2)COC(=O)[C@]3(O)CC [CPT-11, irinotecan HCl, reference compound]
% tumor growth ([3]; CPT-11 25 mg/kg, iv × 1, growth instead of inhibition): (7% Tumor Growth)
% Tumor Growth Inhibition ([3]; CPT-11 75 mg/kg, iv × 1): 5%

COc1cccc2c1C(=O)c1c(O)c3c(c(O)c1C2=O)C[C@@](O)(C(=O)CO)C[C@@H]3O[C@H]1C[C@H](N)[C@H](O)[C@H](C)O1 [Doxorubicin, reference compound]
% Tumor Growth Inhibition ([6]; Doxorubicin 2.5 mg/kg, ip × 1): 7%
% Tumor Growth Inhibition ([6]; Doxorubicin 10 mg/kg, ip × 1): 48%

O=c1[nH]cc(F)c(=O)[nH]1 [Compound 5-FU, 5-fluorouracil, reference compound]
% Tumor Growth Inhibition ([1]; 5-FU 25 mg/kg, iv × 1): 24%
% Tumor Growth Inhibition ([1]; 5-FU 100 mg/kg, iv × 1): 59%

N.N.O=C([O-])C1(C(=O)[O-])CCC1.[Pt+2] [Carboplatin, cis-diammine-1,1-cyclobutanedicarboxylato-platinum II]
% Tumor Growth Inhibition ([2]; Carboplatin 25 mg/kg, ip, q3d × 4): 0%
% Tumor Growth Inhibition ([2]; Carboplatin 50 mg/kg, ip, q3d × 4): 31%

CC(=O)O[C@H]1C(=O)[C@@]2(C)[C@H]([C@H](OC(=O)c3ccccc3)[C@]3(O)C[C@H](OC(=O)[C@H](O)[C@@H](NC(=O)c4ccccc4)c4ccccc4)C(C)=C1C3(C)C)[C@]1(OC(C)=O)CO[C@@H]1C[C@@H]2O [Taxol ®, Paclitaxel, reference compound]
% Tumor Growth Inhibition ([5]; Taxol 20 mg/kg, ip, qd × 5): 75%
